Experimental data reported in the supplement of paper PMC10307832.

Assays:
Experiment in all cases: relative viability (nuclei count vs DMSO), 5 days (fraction); higher = more cells survive
[1] = compound: O[C@H]1CC[C@H](Nc2ncc3nc(Nc4c(F)cc(F)cc4F)n([C@H]4CCOC4)c3n2)CC1 [Tanzisertib] + CC(=O)c1c(C)c2cnc(Nc3ccc(N4CCNCC4)cn3)nc2n(C2CCCC2)c1=O [Palbociclib] (partner 0.5 µM)
Method in brief: (§1)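 Lung cancer cell lines in 1536-well plates got either a single drug or a fixed anchor-drug dose together with five library-drug doses (not always all listed) in √10 steps, by pin tool, on the day after seeding. Nuclei were counted after 5 days, and relative viability is the treated-to-vehicle ratio of nuclei counts. Values are medians of duplicate plates.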

[2] = compound: C[C@@H](N)c1ccc(C(=O)Nc2ccnc3[nH]ccc23)cc1 + CC(=O)c1c(C)c2cnc(Nc3ccc(N4CCNCC4)cn3)nc2n(C2CCCC2)c1=O [Palbociclib] (partner 0.5 µM)
Method in brief: as §1

[3] = compound: C1CNCCC1C2=CC(=NN2)C3=CC=NC=C3 + CC1(C)CCC(c2ccc(Cl)cc2)=C(CN2CCN(c3ccc(C(=O)NS(=O)(=O)c4ccc(N[C@H](CCN5CCOCC5)CSc5ccccc5)c(S(=O)(=O)C(F)(F)F)c4)cc3)CC2)C1 [Navitoclax] (partner 0.5 µM)
Method in brief: as §1

[4] = compound: C1CNCCC1C2=CC(=NN2)C3=CC=NC=C3 + NC(=O)Nc1cc(-c2cccc(F)c2)sc1C(=O)N[C@H]1CCCNC1 [AZD7762] (partner 0.2 µM)
Method in brief: as §1

| Cell Line | relative viability ([1]; first compound 0.08 µM) | relative viability ([1]; first compound 0.253 µM) | relative viability ([1]; first compound 0.8 µM) | relative viability ([1]; first compound 2.53 µM) | relative viability ([1]; first compound 8 µM) | relative viability ([2]; first compound 0.04 µM) | relative viability ([2]; first compound 0.1265 µM) | relative viability ([2]; first compound 0.4 µM) | relative viability ([2]; first compound 1.265 µM) | relative viability ([2]; first compound 4 µM) | relative viability ([3]; first compound 0.08 µM) | relative viability ([3]; first compound 0.8 µM) | relative viability ([3]; first compound 2.53 µM) | relative viability ([3]; first compound 8 µM) | relative viability ([4]; first compound 0.08 µM) | relative viability ([4]; first compound 0.8 µM) | relative viability ([4]; first compound 2.53 µM) | relative viability ([4]; first compound 8 µM) |
| --- | --- | --- | --- | --- | --- | --- | --- | --- | --- | --- | --- | --- | --- | --- | --- | --- | --- | --- |
| NCI-H647 | 0.364 | 0.506 | 0.381 | 0.427 | 0.439 | 0.472 | 0.496 | 0.417 | 0.308 | 0.333 | 1.18 | 1.33 | 1.37 | 1.12 | 0.409 | 0.43 | 0.383 | 0.431 |
| NCI-H1915 | 0.58 | 0.514 | 0.55 | 0.506 | 0.476 | – | 0.504 | 0.52 | – | 0.431 | 0.798 | 0.784 | 0.78 | 0.778 | 0.704 | 0.745 | 0.722 | 0.704 |
| NCI-H1734 | 0.361 | 0.335 | 0.321 | 0.343 | 0.354 | 0.316 | 0.355 | 0.325 | 0.338 | 0.277 | 0.703 | 1.01 | 0.88 | 0.852 | 0.445 | 0.59 | 0.652 | 0.584 |
| NCI-H1993 | 0.652 | 0.531 | 0.611 | 0.617 | 0.595 | 0.688 | 0.74 | – | 0.595 | 0.607 | 0.9 | 0.866 | 1.01 | 0.908 | 0.874 | 0.631 | 0.858 | 0.681 |
| LK-2 | 0.526 | 0.618 | 0.798 | 0.659 | 0.749 | 0.826 | 0.7 | 0.655 | 0.485 | 0.912 | 0.674 | 1.25 | 0.843 | 0.87 | – | 0.29 | 0.532 | 0.522 |
| HCC-78 | 0.405 | 0.474 | 0.488 | 0.514 | 0.472 | 0.456 | 0.45 | 0.544 | – | 0.482 | 0.729 | – | 0.836 | 0.884 | 0.644 | – | 0.888 | 0.723 |
| NCI-H2405 | 0.508 | 0.502 | 0.55 | 0.546 | 0.47 | – | 0.505 | 0.494 | 0.3 | 0.233 | 1.03 | 0.823 | 1.5 | 0.849 | 0.858 | 0.717 | 0.709 | 0.585 |
| HOP-62 | 0.411 | 0.451 | 0.464 | 0.491 | 0.525 | 0.454 | 0.463 | 0.449 | 0.411 | 0.397 | 1.06 | 1.21 | 1.13 | 1.03 | 0.67 | 1 | 0.751 | 0.462 |
| BEN | 0.448 | 0.532 | 0.502 | 0.492 | 0.509 | 0.483 | 0.425 | 0.438 | 0.587 | 0.449 | 0.0512 | 0.0642 | 0.0601 | 0.0843 | 0.546 | 0.634 | 0.675 | 0.772 |
